# Measured values taken from the supplement of paper PMC11061612.
# Legend:
# [1] = system: Becker (Low Grade Glioma); assay: Bliss excess, mean over the matrix (fraction); higher = more synergy
# Summary of the method: (§1)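 Bliss excess equals the observed combination effect minus the expected value EA + EB − EA·EB, where EA and EB are the effects of each agent alone. Combination Emax is the second-highest inhibition within the matrix. Inhibition was scaled from CellTiter-Glo 2.0 luminescence, with 0 set by vehicle wells and 1 by blank wells, after 72 hours of two-drug dosing of cells plated in 1536-well plates.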
# CHL-1 (Melanoma) [2] = assay: as above
# Summary of the method: as §1
# [3] = system: CML-T1 (Chronic Myelogenous Leukemia); assay: as above
# Summary of the method: as §1
# [4] = system: COLO-684 (Endometrial Carcinoma); assay: as above
# Summary of the method: as §1
# [5] = system: EB-3 (Burkitt's Lymphoma); assay: as above
# Summary of the method: as §1
# ES-2 (Ovarian Carcinoma) [6] = assay: as above
# Summary of the method: as §1
# [7] = system: FLO-1 (Esophageal Adenocarcinoma); assay: as above
# Summary of the method: as §1
# [8] = system: HCC-44 (Lung Adenocarcinoma); assay: as above
# Summary of the method: as §1
# HuO-3N1 (Osteosarcoma) [9] = assay: as above
# Summary of the method: as §1
# KYM-1 (Rhabdomyosarcoma) [10] = assay: as above
# Summary of the method: as §1
# [11] = system: KYSE-70 (Esophageal Squamous Cell Carcinoma); assay: as above
# Summary of the method: as §1
# [12] = system: LAMA-84 (Chronic Myelogenous Leukemia); assay: as above
# Summary of the method: as §1
# [13] = system: LOUCY (T-Lymphoblastic Leukemia); assay: as above
# Summary of the method: as §1
# [14] = system: NCI-H1755 (Lung Adenocarcinoma); assay: as above
# Summary of the method: as §1
# [15] = system: NCI-H810 (Non-Small Cell Lung Carcinoma); assay: as above
# Summary of the method: as §1
# [16] = system: NKM-1 (Acute Myeloid Leukemia); assay: as above
# Summary of the method: as §1
# [17] = system: OV-90 (Ovarian Carcinoma); assay: as above
# Summary of the method: as §1
# [18] = system: PANC-02-03 (Pancreatic Carcinoma); assay: as above
# Summary of the method: as §1
# [19] = system: PC-14 (Lung Adenocarcinoma); assay: as above
# Summary of the method: as §1
# [20] = system: RMG-I (Ovarian Carcinoma); assay: as above
# Summary of the method: as §1
# [21] = system: SJRH30 (Rhabdomyosarcoma); assay: as above
# Summary of the method: as §1
# [22] = system: SK-MM-2 (Plasma Cell Myeloma); assay: as above
# Summary of the method: as §1
# [23] = system: SW684 (Other Solid Carcinomas); assay: as above
# Summary of the method: as §1
# [24] = system: Becker (Low Grade Glioma); assay: combination Emax (second highest fraction inhibited in the dose matrix, 72 h); higher = more inhibition; extreme values may be limits of the assay
# Summary of the method: as §1
# CHL-1 (Melanoma) [25] = assay: as above
# Summary of the method: as §1
# [26] = system: CML-T1 (Chronic Myelogenous Leukemia); assay: as above
# Summary of the method: as §1
# [27] = system: COLO-684 (Endometrial Carcinoma); assay: as above
# Summary of the method: as §1
# [28] = system: EB-3 (Burkitt's Lymphoma); assay: as above
# Summary of the method: as §1
# ES-2 (Ovarian Carcinoma) [29] = assay: as above
# Summary of the method: as §1
# [30] = system: FLO-1 (Esophageal Adenocarcinoma); assay: as above
# Summary of the method: as §1
# [31] = system: HCC-44 (Lung Adenocarcinoma); assay: as above
# Summary of the method: as §1
# HuO-3N1 (Osteosarcoma) [32] = assay: as above
# Summary of the method: as §1
# KYM-1 (Rhabdomyosarcoma) [33] = assay: as above
# Summary of the method: as §1
# [34] = system: KYSE-70 (Esophageal Squamous Cell Carcinoma); assay: as above
# Summary of the method: as §1
# [35] = system: LAMA-84 (Chronic Myelogenous Leukemia); assay: as above
# Summary of the method: as §1
# [36] = system: LOUCY (T-Lymphoblastic Leukemia); assay: as above
# Summary of the method: as §1
# [37] = system: NCI-H1755 (Lung Adenocarcinoma); assay: as above
# Summary of the method: as §1
# [38] = system: NCI-H810 (Non-Small Cell Lung Carcinoma); assay: as above
# Summary of the method: as §1
# [39] = system: NKM-1 (Acute Myeloid Leukemia); assay: as above
# Summary of the method: as §1
# [40] = system: OV-90 (Ovarian Carcinoma); assay: as above
# Summary of the method: as §1
# [41] = system: PANC-02-03 (Pancreatic Carcinoma); assay: as above
# Summary of the method: as §1
# [42] = system: PC-14 (Lung Adenocarcinoma); assay: as above
# Summary of the method: as §1
# [43] = system: RMG-I (Ovarian Carcinoma); assay: as above
# Summary of the method: as §1
# [44] = system: SJRH30 (Rhabdomyosarcoma); assay: as above
# Summary of the method: as §1
# [45] = system: SK-MM-2 (Plasma Cell Myeloma); assay: as above
# Summary of the method: as §1
# [46] = system: SW684 (Other Solid Carcinomas); assay: as above
# Summary of the method: as §1
structure (smiles),measurement,setting,value
"CS(=O)(=O)CCNCc1ccc(-c2ccc3ncnc(Nc4ccc(OCc5cccc(F)c5)c(Cl)c4)c3c2)o1 [Lapatinib] + NC1(c2ccc(-c3nc4ccn5c(=O)[nH]nc5c4cc3-c3ccccc3)cc2)CCC1 [MK-2206] (first compound max 10 µM, 7x7, partner max 10 µM)",Bliss excess,[1],0.0516
same,Bliss excess,CHL-1 (Melanoma) [2],0.0221
same,Bliss excess,[3],-0.016
same,Bliss excess,[4],0.0322
same,Bliss excess,[5],-0.0251
same,Bliss excess,ES-2 (Ovarian Carcinoma) [6],-0.131
same,Bliss excess,[7],-0.0401
same,Bliss excess,[8],0.005
same,Bliss excess,HuO-3N1 (Osteosarcoma) [9],-0.0437
same,Bliss excess,KYM-1 (Rhabdomyosarcoma) [10],0.0255
same,Bliss excess,[11],0.0087
same,Bliss excess,[12],-0.046
same,Bliss excess,[13],-0.0343
same,Bliss excess,[14],-0.0085
same,Bliss excess,[15],-0.0152
same,Bliss excess,[16],0.0174
same,Bliss excess,[17],-0.0225
same,Bliss excess,[18],-0.0011
same,Bliss excess,[19],0.0188
same,Bliss excess,[20],-0.0219
same,Bliss excess,[21],0.0103
same,Bliss excess,[22],0.0329
same,Bliss excess,[23],0.0223
same,combination Emax,[24],0.808
same,combination Emax,CHL-1 (Melanoma) [25],0.5
same,combination Emax,[26],0.948
same,combination Emax,[27],0.893
same,combination Emax,[28],0.937
same,combination Emax,ES-2 (Ovarian Carcinoma) [29],0.936
same,combination Emax,[30],0.793
same,combination Emax,[31],0.852
same,combination Emax,HuO-3N1 (Osteosarcoma) [32],0.869
same,combination Emax,KYM-1 (Rhabdomyosarcoma) [33],0.945
same,combination Emax,[34],0.613
same,combination Emax,[35],0.642
same,combination Emax,[36],0.912
same,combination Emax,[37],0.88
same,combination Emax,[38],0.389
same,combination Emax,[39],0.94
same,combination Emax,[40],0.623
same,combination Emax,[41],0.643
same,combination Emax,[42],0.993
same,combination Emax,[43],0.679
same,combination Emax,[44],0.914
same,combination Emax,[45],0.52
same,combination Emax,[46],0.686
